Experimental data published in the Kinase Knowledgebase extract (Sharma et al. 2016).
≈ marks a conversion by molar mass, not a printed value.

The compounds below were run against EGFR (UniProt P00533).
Sequence of EGFR (P00533 whole entry, looked up): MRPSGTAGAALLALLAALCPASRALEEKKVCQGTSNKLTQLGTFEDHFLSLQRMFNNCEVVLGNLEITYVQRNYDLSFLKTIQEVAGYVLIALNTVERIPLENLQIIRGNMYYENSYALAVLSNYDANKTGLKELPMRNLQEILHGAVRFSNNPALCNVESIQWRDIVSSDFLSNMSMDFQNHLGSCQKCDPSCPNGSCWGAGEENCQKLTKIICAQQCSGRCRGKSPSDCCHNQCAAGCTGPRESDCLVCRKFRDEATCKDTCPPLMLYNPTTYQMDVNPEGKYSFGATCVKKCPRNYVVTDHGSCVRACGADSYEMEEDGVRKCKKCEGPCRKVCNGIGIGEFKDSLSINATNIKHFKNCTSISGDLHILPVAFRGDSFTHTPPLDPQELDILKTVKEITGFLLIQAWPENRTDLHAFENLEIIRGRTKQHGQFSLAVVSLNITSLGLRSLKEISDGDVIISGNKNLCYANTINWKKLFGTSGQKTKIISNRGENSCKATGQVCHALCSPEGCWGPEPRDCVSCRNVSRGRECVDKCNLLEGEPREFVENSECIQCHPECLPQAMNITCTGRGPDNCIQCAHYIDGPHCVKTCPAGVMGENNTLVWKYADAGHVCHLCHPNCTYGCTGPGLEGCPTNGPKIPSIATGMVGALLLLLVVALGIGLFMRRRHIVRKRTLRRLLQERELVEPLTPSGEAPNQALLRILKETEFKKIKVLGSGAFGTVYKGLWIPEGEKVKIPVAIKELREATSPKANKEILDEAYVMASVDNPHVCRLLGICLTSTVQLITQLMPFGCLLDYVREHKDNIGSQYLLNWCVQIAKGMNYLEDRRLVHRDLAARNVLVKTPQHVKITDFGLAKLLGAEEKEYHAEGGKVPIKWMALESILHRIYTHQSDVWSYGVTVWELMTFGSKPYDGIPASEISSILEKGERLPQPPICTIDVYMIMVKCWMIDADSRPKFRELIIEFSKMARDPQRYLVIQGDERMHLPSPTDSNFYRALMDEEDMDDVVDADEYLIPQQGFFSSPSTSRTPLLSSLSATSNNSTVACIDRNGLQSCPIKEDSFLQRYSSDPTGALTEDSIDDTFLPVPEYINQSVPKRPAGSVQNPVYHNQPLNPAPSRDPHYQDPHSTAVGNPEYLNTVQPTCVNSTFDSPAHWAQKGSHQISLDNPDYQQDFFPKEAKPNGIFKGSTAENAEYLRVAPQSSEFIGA
`O=C(Nc1cccc(Nc2ncnc(-n3c(=O)[nH]c4ccccc43)n2)c1)O[C@@H]1CCOC1` showed an IC50 of 2.4 to 3.5 mg/L (≈ 5.54 to 8.08 µM). For `COC(=O)c1ccc(-c2cc(Nc3ncnc(Nc4ccc(N5CCOCC5)cc4)n3)[nH]n2)cc1`, the IC50 was 3.5 to 4.5 mg/L (≈ 7.41 to 9.52 µM). `COc1cc(Nc2ncnc(Nc3cc(Cl)ccc3C)n2)cc(OC)c1OC` was tested, and the IC50 was under 0.4 mg/L. `c1ccc(CCNc2ncnc(Nc3ccc4c(cnn4Cc4ccccc4)c3)n2)cc1` gave an IC50 of over 4.5 mg/L. Compound `CCOC(=O)C(Cc1cccc(Nc2ncnc(Nc3cc(-c4ccco4)n[nH]3)n2)c1)(NC(C)=O)C(=O)OCC` has an IC50 of over 4.5 mg/L. For `COc1cc(Nc2ncnc(-n3c(NCc4nc5ccccc5[nH]4)nc4ccccc43)n2)cc(OC)c1OC`, the IC50 was over 4.5 mg/L. In the case of `COc1ccc(Nc2ncnc(Nc3ccccc3C)n2)cc1OC`, the IC50 is reported as under 0.4 mg/L. `CN(c1cccc(Cl)c1)c1ncnc(Nc2cccc(CC(=O)O)c2)n1` was tested, and the IC50 was under 0.4 mg/L. With `CNc1nc2ccccc2n1-c1ncnc(Nc2cc(OC)c(OC)c(OC)c2)n1` the IC50 was over 4.5 mg/L. For `CC(=O)c1ccc(Nc2ncnc(Nc3ccc4c(cnn4Cc4ccccc4)c3)n2)cc1`, the IC50 was under 0.4 mg/L. For `COc1cc(Nc2ncnc(Nc3n[nH]c(Nc4ccc(Cl)cc4)n3)n2)cc(OC)c1OC`, the IC50 was 2.4 to 3.5 mg/L (≈ 5.11 to 7.45 µM). For `COc1cc(Nc2ncnc(-n3c(NCc4ccc(Br)cc4)nc4ccccc43)n2)cc(OC)c1OC`, the IC50 was over 4.5 mg/L. Compound `COc1ccc(-c2ncnc(Nc3cc(OC)c(OC)c(OC)c3)n2)cc1OC` has an IC50 of 3.5 to 4.5 mg/L (≈ 8.78 to 11.3 µM). `COc1cc(Nc2ncnc(-c3ccnc(NCCCN)c3)n2)cc(OC)c1OC` gave an IC50 of over 4.5 mg/L. For `CC(C)(C)OC(=O)Nc1ccc(Nc2ncnc(-c3ccccc3)n2)cc1`, the IC50 was over 4.5 mg/L. Work on `COc1cc(C)c(Nc2ncnc(Nc3cc(-c4ccc(C)cc4)n[nH]3)n2)cc1OC` yielded an IC50 of over 4.5 mg/L. For `COc1ccc2c(c1)nc(Cl)n2-c1ncnc(Nc2cc(OC)c(OC)c(OC)c2)n1.COc1ccc2nc(Cl)n(-c3ncnc(Nc4cc(OC)c(OC)c(OC)c4)n3)c2c1`, the IC50 was over 4.5 mg/L. With `C=CCNc1ncccc1-c1ncnc(Nc2cc(OC)c(OC)c(OC)c2)n1` the IC50 was over 4.5 mg/L. `COc1cc(Nc2ncnc(-n3c(Nc4ccccc4C(C)C)nc4ccccc43)n2)cc(OC)c1OC` was tested, and the IC50 was over 4.5 mg/L. `Nc1nc2ccccc2n1-c1ncnc(N2C(=O)c3ccccc3C2=O)n1` gave an IC50 of over 4.5 mg/L. `CN(c1cccc(Cl)c1)c1ncnc(Nc2ccc3nn(C)cc3c2)n1` gave an IC50 of under 0.4 mg/L. Work on `O=c1[nH]c2ccccc2n1-c1ncnc(Nc2ccc(NS(=O)(=O)c3ccc([N+](=O)[O-])cc3)cc2)n1` yielded an IC50 of 0.4 to 2.4 mg/L (≈ 0.793 to 4.76 µM). `COc1cc(Nc2ncnc(Nc3cccc(C(=O)O)c3)n2)cc(OC)c1OC` was tested, and the IC50 was under 0.4 mg/L. `Cc1ccc2c(c1)CCCN2c1ncnc(NCCc2cccnc2)n1` was tested, and the IC50 was over 4.5 mg/L. `COc1cc(Nc2ncnc(Nc3cc(-c4ccco4)n[nH]3)n2)cc(OC)c1OC` gave an IC50 of under 0.4 mg/L. Work on `COc1cc(Nc2ncnc(-c3cccnc3NC3CCc4ccccc43)n2)cc(OC)c1OC` (centres undefined) yielded an IC50 of 2.4 to 3.5 mg/L (≈ 5.1 to 7.44 µM). `COCCOc1ccc(Nc2ncnc(Nc3ccc4[nH]ccc4c3)n2)cc1OCCOC` was tested, and the IC50 was under 0.4 mg/L. With `COC(=O)c1ccc(-c2cc(Nc3ncnc(NCCNC(C)=O)n3)[nH]n2)cc1` the IC50 was over 4.5 mg/L. `COc1cc(Nc2ncnc(-c3ccnc(Cl)c3)n2)cc(OC)c1OC` was tested, and the IC50 was over 4.5 mg/L. With `O=[N+]([O-])c1cccc(Nc2ncnc(-c3cccs3)n2)c1` the IC50 was over 4.5 mg/L. For `CN(c1cccc(Cl)c1)c1ncnc(Nc2ccc3nn(Cc4ccccc4)cc3c2)n1`, the IC50 was under 0.4 mg/L. For `CCN(CC)CCOc1ccc(Nc2ncnc(-n3c(N)nc4ccccc43)n2)cc1OC`, the IC50 was over 4.5 mg/L. `COc1cc(Nc2ncnc(Nc3ccc(O)cc3C)n2)cc(OC)c1OC` was tested, and the IC50 was 2.4 to 3.5 mg/L (≈ 6.26 to 9.13 µM). `COc1ccc(CCNc2ncnc(Nc3cc(-c4ccco4)[nH]n3)n2)cc1OC` gave an IC50 of over 4.5 mg/L. In the case of `COc1cc(Nc2ncnc(Nc3c(C)n(C)n(-c4ccccc4)c3=O)n2)cc(OC)c1OC`, the IC50 is reported as over 4.5 mg/L. Work on `COc1cc(Nc2ncnc(Nc3ccc(OCC(=O)Nc4ccccc4)cc3)n2)cc(OC)c1OC` yielded an IC50 of 0.4 to 2.4 mg/L (≈ 0.796 to 4.78 µM). In the case of `Cc1cccc(Nc2ncnc(N(C)c3cccc(Cl)c3)n2)c1`, the IC50 is reported as under 0.4 mg/L. For `COc1ccc2c(c1)nc(Nc1ccc3[nH]ccc3c1)n2-c1ncnc(Nc2cc(OC)c(OC)c(OC)c2)n1.COc1ccc2nc(Nc3ccc4[nH]ccc4c3)n(-c3ncnc(Nc4cc(OC)c(OC)c(OC)c4)n3)c2c1`, the IC50 was over 4.5 mg/L. `COC(=O)c1ccc(-c2cc(Nc3ncnc(Nc4cc(Cl)cc(Cl)c4)n3)[nH]n2)cc1` showed an IC50 of over 4.5 mg/L.
